Experimental data published in US20010036933A1, “Water soluble lipidated arabinogalactan” (The University of Montana, priority 1996, published 2001).
Values belong to the compound of their own block, whether it stands above or below them.

Assays:
[1] = Solubility of progesterone in water and in aqueous AG decanoate (UV absorption at 250 nm); assay type: physicochemical; settings: 60° C. 10 min, then 25° C. 20 h
Experimental: Progesterone was heated with water at 60° C. for 10 min, then held at 25° C. for 20 h. […] When the above experiment was repeated with a 1% aqueous solution of AG decanoate (DS 2.59%) the saturated solution contained 4.7×10^−3% progesterone. In the UV analysis of the AG decanoate solution of the progesterone, the appropriate AG decanoate solution without progesterone was used as a spectrometer blank.

[2] = test system: tumor metastases; settings: mice; cited from earlier work
[3] = test system: ovalbumin (“O.A.”); assay: Assay of adjuvant activity: antibody formation in mice injected with ovalbumin plus arabinogalactan compound; assay type: in vivo; settings: for adjuvant activity in antibody formation in comparison to the control: 25 μg ovalbumin in saline with 50, 10 or 2 μg compound, booster day 21, bled days 7, 14, 28, 35
Experimental: In the experiment, 25 μg of ovalbumin (“O.A.”) was injected into mice in a saline solution together with 50, 10, 2 or 0 μg (the control) of the arabinogalactan compounds. The animals were prebled prior to immunization; injected; bled on days 7 and 14; given a booster injection on day 21; and bled on days 28 and 35 for antibody determination.

[4] = test system: neutrophil-HUVEC adhesion; assay: Neutrophil-HUVEC adhesion under physiological shear forces (closed-loop capillary tube, video-microscopy); assay type: cell-based, human; settings: for effect on neutrophil rolling on activated HUVEC: 1-100 μg/ml
Experimental: The in vitro effects of Compound A-F listed in Table I on leucocyte and endothelial cell adhesion under physiological shear forces was examined as follows.
Human umbilical vein endothelial cells (HUVEC) were grown to confluence on the internal surface of collagen type I coated capillary tubes. Endothelial cells were stimulated for 4 hours with […] (10 ng, Genzyme), which upregulates adhesion molecules such as E-selectin within 4-6 hours. Neutrophils and lymphocytes were collected from normal human donors by venipuncture and separated from the blood on ficoll-histoplaque density gradients. The endothelial cell-coated tubes were then integrated into the closed-loop system. Leukocytes were infused into the assay system at a concentration of 1×10^6-5×10^6 cell/ml in DMEM plus 20 mM HEPES. Shear forces of 1-3 dynes/cm^2 (standard representation of blood flow) were applied via a variable speed peristaltic pump, and interactions between the leukocytes and endothelial cells were monitored by video-microscopy. Comparisons were made of the binding of leukocytes and endothelial cells treated with the 6 compounds and untreated controls.
To observe the effects of the compounds on neutrophil adhesive interactions, the neutrophils were infused and allowed to establish rolling for two minutes before the addition of the compounds. The compounds were added in increasing 1 μg/ml, 10 μg/ml, and 100 μg/ml final concentrations at 2 minute intervals. The interactions were recorded to video tape.

[5] = Formation of oil-water emulsions with water-soluble lipidated arabinogalactan; assay type: physicochemical

dissolved progesterone in saturated solution ([1]; 1% aqueous solution of AG decanoate (DS 2.59%)): 4.7×10^−3%
dissolved progesterone in saturated solution ([1]; water): 8.8×10^−4%
Compound: CC(=O)[C@H]1CC[C@H]2[C@@H]3CCC4=CC(=O)CC[C@]4(C)[C@H]3CC[C@]12C [Progesterone]

Compound: AG (ultrarefined) [Compound A, reference compound]
effect on tumor metastases [2]: reduce tumor metastases
adjuvant activity in antibody formation in comparison to the control [3]: some adjuvant activity
effect on neutrophil rolling on activated HUVEC [4]: significantly blocked
reduction in neutrophil adhesion ([4]; during the time course, 1, 10, 100 μg/ml added at 2 minute intervals, IL-stimulated HUVEC): ~75%
reduction of neutrophil binding to baseline ([4]; even at 10 μg/ml or 100 μg/ml): did not reduce binding to baseline

Compound: AG decanoate (DS 2.6%)
effect on neutrophil rolling on activated HUVEC [4]: no measurable effect

Compound: AG dodecyl ether (DS 1.3%) [F]
effect on neutrophil rolling on activated HUVEC [4]: no measurable effect

Compound: AG palmitate (DS 1.7%) [C]
adjuvant activity in antibody formation in comparison to the control [3]: some adjuvant activity
adjuvant activity, rank among the three arabinogalactan compounds ([3]; ovalbumin antigen): highest adjuvant activity
concentration effective in blocking neutrophil-HUVEC adhesion [4]: 1 µg/mL
effect on neutrophil rolling on activated HUVEC [4]: significantly blocked
stability of emulsion with safflower oil ([5]; 2 mL 1.0% aqueous solution mixed with safflower oil (4 g), room temperature): no separation of phases was evident after several days
behaviour on shaking with hexane ([5]; 2 mL 1% solution shaken with hexane (1 mL)): upper phase became extremely viscous and opaque and remained in this state for several days

Compound: AG palmitate [high substitution (DS 7.3%) AG palmitate]
adjuvant activity in antibody formation in comparison to the control [3]: some adjuvant activity

Compound: AG stearate (DS 1.7%) [B]
concentration effective in blocking neutrophil-HUVEC adhesion [4]: 1 µg/mL
effect on neutrophil rolling on activated HUVEC [4]: significantly blocked

Compound: galactan from fractional hydrolysis of AG (arabinose 1.5%)
effect on neutrophil rolling on activated HUVEC [4]: no measurable effect
